Assay results published in patent publication US20250325531A1, “TREATMENT OF SYSTOLIC DYSFUNCTION” (MyoKardia, Inc., priority 2024, published 2025).

System: patients with stable HFrEF
Assay: Safety and tolerability (TEAEs, serum troponin, ECG, Holter) in MAD cohorts, patients with stable HFrEF
Type: in vivo, human
Experimental: During the study, multiple evaluations were performed that included: serial TTE assessments (11-14 TTEs per patient on Days 1, 2, 3, 4, 7, 9, 10 and 11); PK sampling (PK sample collected concomitantly with every post-randomization echocardiogram); ECGs (on Days 2, 3, 4, 7, 9, 10, 11 and 16); troponin (collected concomitantly with every post-randomization ECG); and safety laboratory assessments. Confined patients underwent continuous telemetry. Holter monitoring was performed in all patients at baseline (Days 1-2) and at the end of double-blind treatment (Days 7-9). Vital signs were collected daily.
Safety and efficacy assessments were conducted by measuring patients' vital signs and laboratory parameters; performing TTE to measure, e.g., systolic ejection time; performing electrocardiograms (e.g., 12-lead ECG), real-time ECG telemetry (e.g., at least 3-lead), and Holter ECG; and measuring levels of troponin (e.g., troponin I and/or troponin T) and 4β-hydroxycholesterol.
Abnormal and/or rising troponin values (as per investigator's judgment and taking into account potential baseline troponin elevation frequently observed in heart failure) led to the patient being clinically evaluated for possible myocardial ischemia. […] The entire clinical context (e.g., signs, symptoms, new ECG changes, new troponin, and CK-MB abnormalities) was evaluated and correlated with any other relevant clinical findings, patient's medical history, and laboratory data to determine the clinical significance of the findings. Troponin results performed on Day 2 of Part 1 (SAD) and Day 10 of Part 2 (MAD) at a local lab were reviewed prior to the patient being discharged the next day.

[1] = Cohort A + C 75 mg BID (n = 15)

Cn1cc(S(=O)(=O)[C@@](C)(F)C2CCN(C(=O)Nc3ccon3)CC2)c(C(F)F)n1 [Compound I, (R)-4-(1-((3-(difluoromethyl)-1-methyl-1H-pyrazol-4-yl)sulfonyl)-1-fluoroethyl)-N-(isoxazol-3-yl) piperidine-1-carboxamide]
Number of patients with any AE leading to death [1]: 0 | Number of patients with any TEAE [1]: 6 | Number of patients with any TEAE leading to permanent treatment discontinuation [1]: 0 | Number of patients with any serious TEAE [1]: 1 | TEAE Abdominal discomfort, n patients [1]: 0 | TEAE Alanine aminotransferase increased, n patients [1]: 1 | TEAE Anemia, n patients [1]: 1 | TEAE Application site erosion, n patients [1]: 0 | TEAE Arthralgia, n patients [1]: 0 | TEAE Arthropod bite, n patients [1]: 0 | TEAE Back pain, n patients [1]: 0 | TEAE Blood creatine phosphokinase increased, n patients [1]: 0 | TEAE Blood creatinine increased, n patients [1]: 0 | TEAE Cough, n patients [1]: 1 | TEAE Dermatitis contact, n patients [1]: 0 | TEAE Dry eye, n patients [1]: 0 | TEAE Fatigue, n patients [1]: 2 | TEAE Fluid overload, n patients [1]: 0 | TEAE Gingival pain, n patients [1]: 0 | TEAE Hyperkalemia, n patients [1]: 0 | TEAE Infusion site erythema, n patients [1]: 0 | TEAE Nasopharyngitis, n patients [1]: 0 | TEAE Rash, n patients [1]: 0 | TEAE Renal failure, n patients [1]: 0 | TEAE Renal impairment, n patients [1]: 0 | TEAE Testicular pain, n patients [1]: 0 | TEAE Troponin increased, n patients [1]: 1 | TEAE Ventricular tachycardia, n patients [1]: 0 | Number of patients with any AE leading to death (Cohort B 50 mg BID (n = 9)): 0 | Number of patients with any TEAE (Cohort B 50 mg BID (n = 9)): 7 | Number of patients with any TEAE leading to permanent treatment discontinuation (Cohort B 50 mg BID (n = 9)): 0 | Number of patients with any serious TEAE (Cohort B 50 mg BID (n = 9)): 0 | TEAE Abdominal discomfort, n patients (Cohort B 50 mg BID (n = 9)): 1 | TEAE Alanine aminotransferase increased, n patients (Cohort B 50 mg BID (n = 9)): 1 | TEAE Anemia, n patients (Cohort B 50 mg BID (n = 9)): 0 | TEAE Application site erosion, n patients (Cohort B 50 mg BID (n = 9)): 1 | TEAE Arthralgia, n patients (Cohort B 50 mg BID (n = 9)): 0 | TEAE Arthropod bite, n patients (Cohort B 50 mg BID (n = 9)): 0 | TEAE Back pain, n patients (Cohort B 50 mg BID (n = 9)): 0 | TEAE Blood creatine phosphokinase increased, n patients (Cohort B 50 mg BID (n = 9)): 1 | TEAE Blood creatinine increased, n patients (Cohort B 50 mg BID (n = 9)): 0 | TEAE Cough, n patients (Cohort B 50 mg BID (n = 9)): 0 | TEAE Dermatitis contact, n patients (Cohort B 50 mg BID (n = 9)): 2 | TEAE Dry eye, n patients (Cohort B 50 mg BID (n = 9)): 0 | TEAE Fatigue, n patients (Cohort B 50 mg BID (n = 9)): 0 | TEAE Fluid overload, n patients (Cohort B 50 mg BID (n = 9)): 1 | TEAE Gingival pain, n patients (Cohort B 50 mg BID (n = 9)): 0 | TEAE Hyperkalemia, n patients (Cohort B 50 mg BID (n = 9)): 1 | TEAE Infusion site erythema, n patients (Cohort B 50 mg BID (n = 9)): 1 | TEAE Nasopharyngitis, n patients (Cohort B 50 mg BID (n = 9)): 0 | TEAE Rash, n patients (Cohort B 50 mg BID (n = 9)): 1 | TEAE Renal failure, n patients (Cohort B 50 mg BID (n = 9)): 0 | TEAE Renal impairment, n patients (Cohort B 50 mg BID (n = 9)): 0 | TEAE Testicular pain, n patients (Cohort B 50 mg BID (n = 9)): 0 | TEAE Troponin increased, n patients (Cohort B 50 mg BID (n = 9)): 0 | TEAE Ventricular tachycardia, n patients (Cohort B 50 mg BID (n = 9)): 1 | Number of patients with any AE leading to death (Cohort D 100 mg BID (n = 6)): 0 | Number of patients with any TEAE (Cohort D 100 mg BID (n = 6)): 4 | Number of patients with any TEAE leading to permanent treatment discontinuation (Cohort D 100 mg BID (n = 6)): 0 | Number of patients with any serious TEAE (Cohort D 100 mg BID (n = 6)): 0 | TEAE Abdominal discomfort, n patients (Cohort D 100 mg BID (n = 6)): 0 | TEAE Alanine aminotransferase increased, n patients (Cohort D 100 mg BID (n = 6)): 0 | TEAE Anemia, n patients (Cohort D 100 mg BID (n = 6)): 0 | TEAE Application site erosion, n patients (Cohort D 100 mg BID (n = 6)): 0 | TEAE Arthralgia, n patients (Cohort D 100 mg BID (n = 6)): 0 | TEAE Arthropod bite, n patients (Cohort D 100 mg BID (n = 6)): 1 | TEAE Back pain, n patients (Cohort D 100 mg BID (n = 6)): 0 | TEAE Blood creatine phosphokinase increased, n patients (Cohort D 100 mg BID (n = 6)): 0 | TEAE Blood creatinine increased, n patients (Cohort D 100 mg BID (n = 6)): 1 | TEAE Cough, n patients (Cohort D 100 mg BID (n = 6)): 0 | TEAE Dermatitis contact, n patients (Cohort D 100 mg BID (n = 6)): 0 | TEAE Dry eye, n patients (Cohort D 100 mg BID (n = 6)): 0 | TEAE Fatigue, n patients (Cohort D 100 mg BID (n = 6)): 0 | TEAE Fluid overload, n patients (Cohort D 100 mg BID (n = 6)): 0 | TEAE Gingival pain, n patients (Cohort D 100 mg BID (n = 6)): 1 | TEAE Hyperkalemia, n patients (Cohort D 100 mg BID (n = 6)): 0 | TEAE Infusion site erythema, n patients (Cohort D 100 mg BID (n = 6)): 0 | TEAE Nasopharyngitis, n patients (Cohort D 100 mg BID (n = 6)): 0 | TEAE Rash, n patients (Cohort D 100 mg BID (n = 6)): 0 | TEAE Renal failure, n patients (Cohort D 100 mg BID (n = 6)): 0 | TEAE Renal impairment, n patients (Cohort D 100 mg BID (n = 6)): 0 | TEAE Testicular pain, n patients (Cohort D 100 mg BID (n = 6)): 0 | TEAE Troponin increased, n patients (Cohort D 100 mg BID (n = 6)): 1 | TEAE Ventricular tachycardia, n patients (Cohort D 100 mg BID (n = 6)): 1 | QTc (MAD cohorts): No increase in QTc | patients with TEAEs (MAD cohorts, Compound I patients): 17 (57%) n (%) | patients with transient and asymptomatic increase in troponin I or hs-troponin T (MAD cohorts, all doses): 7 (23%) n (%) | Number of patients with any AE leading to death (Total Compound I (n = 30)): 0 | Number of patients with any TEAE (Total Compound I (n = 30)): 17 | Number of patients with any TEAE leading to permanent treatment discontinuation (Total Compound I (n = 30)): 0 | Number of patients with any serious TEAE (Total Compound I (n = 30)): 1 | TEAE Abdominal discomfort, n patients (Total Compound I (n = 30)): 1 | TEAE Alanine aminotransferase increased, n patients (Total Compound I (n = 30)): 2 | TEAE Anemia, n patients (Total Compound I (n = 30)): 1 | TEAE Application site erosion, n patients (Total Compound I (n = 30)): 1 | TEAE Arthralgia, n patients (Total Compound I (n = 30)): 0 | TEAE Arthropod bite, n patients (Total Compound I (n = 30)): 1 | TEAE Back pain, n patients (Total Compound I (n = 30)): 0 | TEAE Blood creatine phosphokinase increased, n patients (Total Compound I (n = 30)): 1 | TEAE Blood creatinine increased, n patients (Total Compound I (n = 30)): 1 | TEAE Cough, n patients (Total Compound I (n = 30)): 1 | TEAE Dermatitis contact, n patients (Total Compound I (n = 30)): 2 | TEAE Dry eye, n patients (Total Compound I (n = 30)): 0 | TEAE Fatigue, n patients (Total Compound I (n = 30)): 2 | TEAE Fluid overload, n patients (Total Compound I (n = 30)): 1 | TEAE Gingival pain, n patients (Total Compound I (n = 30)): 1 | TEAE Hyperkalemia, n patients (Total Compound I (n = 30)): 1 | TEAE Infusion site erythema, n patients (Total Compound I (n = 30)): 1 | TEAE Nasopharyngitis, n patients (Total Compound I (n = 30)): 0 | TEAE Rash, n patients (Total Compound I (n = 30)): 1 | TEAE Renal failure, n patients (Total Compound I (n = 30)): 0 | TEAE Renal impairment, n patients (Total Compound I (n = 30)): 0 | TEAE Testicular pain, n patients (Total Compound I (n = 30)): 0 | TEAE Troponin increased, n patients (Total Compound I (n = 30)): 2 | TEAE Ventricular tachycardia, n patients (Total Compound I (n = 30)): 2 | ventricular arrhythmias (Holter monitoring) (compared with placebo): no increase in ventricular arrhythmias | systolic blood pressure (higher concentration group): decrease | serious AE, one patient (not considered related to study treatment): hyperkalemia
